Like-named read-outs stand apart in the source and are kept apart here.
Assays:
[1] = biological target: BRD4-BD1 (44-164) (Homo sapiens (Human), UniProt O60885); assay: Alphascreen binding assay BRD4-BD1; settings: BRD4(1) H4; read-out: Biochemical activity (IC50 μM) BRD4(1) H4
Summary of the method: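 His-tagged E. coli-expressed BRD4 BD1 (44-164) or BD1-BD2 (1-477) incubated 1 h at room temperature with biotinylated tetra-acetylated histone H4 1-21 peptide and compound in HEPES pH 7.5, NaCl, BSA, Triton X-100, DTT buffer. Ni-chelate/streptavidin AlphaScreen beads (7.5 µg/ml) added, read after 30 min; pIC50 from four-parameter fit.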

[2] = test system: bromodomain; assay: at least one of the bromodomain cell assays of Example 57; format: cell-based; settings: at least one of the bromodomain cell assays described in Example 57; read-out: IC50 in at least one of the bromodomain cell assays
[3] = test system: MV-4-11 cells; assay: Oncology cell growth assay MV-4-11 (CellTiter Glo); format: cell-based
Summary of the method: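 MV-4-11 AML cells (MLL-AF4), 3000 per well, exposed to 8-point 1:3 compound titration from 10 μM top concentration (0.2% DMSO) for 72 h. Viability by CellTiter Glo luminescence, normalized to DMSO controls; pIC50 from four-parameter curve fit.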

[4] = biological target: BRD4-BD12 (1-477) (Homo sapiens (Human), UniProt O60885); assay: Alphascreen binding assay BRD4-BD12; settings: BRD4(1 2) H4; read-out: Biochemical activity (IC50 μM) BRD4(1 2) H4
Summary of the method: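 First, compound was preincubated 1 h at room temperature with the His-tagged BRD4 protein (BD1 44-164 or tandem BD12 1-477) and acetylated H4 peptide. Next, donor and acceptor beads were added at 7.5 μg/ml final. After 30 min, AlphaScreen emission was recorded.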

[5] = Homo sapiens, MV4-11, 72 h; read-out: Cell activity (IC50 μM) MV-4-11 3d-Growth

**Q.** Which results are given for “[6-(3,5-dimethylisoxazol-4-yl)-1H-pyrrolo[3,2-b]pyridin-3-yl]-tetrahydrothiopyran-4-yl-methanone [P-0091]”?
**A.** IC50 [1]: < 1 µM; IC50 [2]: < 10000 nM; IC50 ([3]; MV-4-11 3d-Growth; read-out: Cell activity (IC50 μM) MV-4-11 3d-Growth): 1 to 10 µM

**Q.** With `Cc1noc(C)c1-c1cnc2c(-c3cnn(CC(F)(F)F)c3)cn(C(CC#N)c3ccccc3)c2c1` (stereo not shown) [P-0332, 3-[6-(3,5-dimethylisoxazol-4-yl)-3-[1-(2,2,2-trifluoroethyl)pyrazol-4-yl]pyrrolo[3,2-b]pyridin-1-yl]-3-phenyl-propanenitrile] as the compound, how does the IC50 [1] read?
**A.** < 1 µM

**Q.** What about the IC50 [2] of the same compound?
**A.** < 10000 nM

**Q.** And the IC50 [3, 5]?
**A.** < 1 µM

**Q.** And the IC50 [4]?
**A.** < 1 µM

**Q.** With `Cc1noc(C)c1-c1cnc2c(I)cn(Cc3ccccc3)c2c1` [P-0318, 4-(1-benzyl-3-iodo-pyrrolo[3,2-b]pyridin-6-yl)-3,5-dimethyl-isoxazole] as the compound, how does the IC50 [1] read?
**A.** < 1 µM

**Q.** And the IC50 [2]?
**A.** < 10000 nM

**Q.** And the IC50 [3, 5]?
**A.** < 1 µM

**Q.** And the IC50 [4]?
**A.** < 1 µM

**Q.** Which IC50 [1] does the source give for `Cc1noc(C)c1-c1cnc2c(-c3cnco3)cn(C(C)c3ccccc3)c2c1` (stereo not shown) [P-0301, 3,5-dimethyl-4-[3-oxazol-5-yl-1-(1-phenylethyl)pyrrolo[3,2-b]pyridin-6-yl]isoxazole] here?
**A.** < 1 µM

**Q.** And the IC50 [2]?
**A.** < 10000 nM

**Q.** And the IC50 [3, 5]?
**A.** < 1 µM

**Q.** And the IC50 [4]?
**A.** < 1 µM

**Q.** What does the source list for `Cc1noc(C)c1-c1cnc2c(Br)cn(C(CC#N)C3CCCC3)c2c1` (stereo not shown) [P-0280, 3-[3-bromo-6-(3,5-dimethylisoxazol-4-yl)pyrrolo[3,2-b]pyridin-1-yl]-3-cyclopentyl-propanenitrile]?
**A.** IC50 [1]: < 1 µM; IC50 [2]: < 10000 nM; IC50 [3, 5]: < 1 µM; IC50 [4]: < 1 µM

**Q.** `Cc1noc(C)c1-c1cnc2c(-c3cccnc3)cn(C(C)c3ccccc3)c2c1` (stereo not shown) [P-0267] was tested. Which IC50 [1] did it give?
**A.** < 1 µM

**Q.** What about the IC50 [2] of the same compound?
**A.** < 10000 nM

**Q.** And the IC50 [3, 5]?
**A.** < 1 µM

**Q.** And the IC50 [4]?
**A.** < 1 µM

**Q.** Which IC50 [1] does the source give for `Cc1onc(N)c1-c1cnc2ccn(CC3CCC(F)(F)CC3)c2c1` [P-0329, 4-[1-[(4,4-difluorocyclohexyl)methyl]pyrrolo[3,2-b]pyridin-6-yl]-5-methyl-isoxazol-3-amine] here?
**A.** < 1 µM

**Q.** And the IC50 [2]?
**A.** < 10000 nM

**Q.** And the IC50 [3, 5]?
**A.** 1 to 10 µM

**Q.** What about the IC50 [4] of the same compound?
**A.** < 1 µM

**Q.** What does the source list for `Cc1n[nH]c(C)c1-c1cn(C(C)c2ccccc2)c2cc(-c3c(C)noc3C)cnc12` (stereo not shown) [P-0287, 4-[3-(3,5-dimethyl-1H-pyrazol-4-yl)-1-(1-phenylethyl)pyrrolo[3,2-b]pyridin-6-yl]-3,5-dimethyl-isoxazole]?
**A.** IC50 [1]: < 1 µM; IC50 [2]: < 10000 nM; IC50 [3, 5]: < 1 µM; IC50 [4]: < 1 µM

**Q.** `Cc1noc(C)c1-c1cnc2c(C#CCO)cn(CC3CCC(F)(F)CC3)c2c1` [P-0264, 3-[1-[(4,4-difluorocyclohexyl)methyl]-6-(3,5-dimethylisoxazol-4-yl)pyrrolo[3,2-b]pyridin-3-yl]prop-2-yn-1-ol] was tested. Which IC50 [1] did it give?
**A.** < 1 µM

**Q.** And the IC50 [2]?
**A.** < 10000 nM

**Q.** What about the IC50 [3, 5] of the same compound?
**A.** < 1 µM

**Q.** And the IC50 [4]?
**A.** 1 to 10 µM

**Q.** For `Cc1noc(C)c1-c1cnc2c(-c3cnn(CC(F)(F)F)c3)cn(C(CC#N)C3CCCC3)c2c1` (stereo not shown) [P-0266, 3-cyclopentyl-3-[6-(3,5-dimethylisoxazol-4-yl)-3-[1-(2,2,2-trifluoroethyl)pyrazol-4-yl]pyrrolo[3,2-b]pyridin-1-vl]propanenitrile], which IC50 [1] is on record?
**A.** < 1 µM

**Q.** What about the IC50 [2] of the same compound?
**A.** < 10000 nM

**Q.** And the IC50 [3, 5]?
**A.** < 1 µM

**Q.** What about the IC50 [4] of the same compound?
**A.** < 1 µM

**Q.** `Cc1noc(C)c1-c1cnc2c(-c3cnc(C4CC4)nc3)cn(C(C)c3ccccc3)c2c1` (stereo not shown) [P-0278, 4-[3-(2-cyclopropylpyrimidin-5-yl)-1-(1-phenylethyl)pyrrolo[3,2-b]pyridin-6-yl]-3,5-dimethyl-isoxazole] was tested. Which IC50 [1] did it give?
**A.** < 1 µM

**Q.** What about the IC50 [2] of the same compound?
**A.** < 10000 nM

**Q.** And the IC50 [3, 5]?
**A.** < 1 µM

**Q.** And the IC50 [4]?
**A.** < 1 µM

**Q.** With `Cc1n[nH]cc1-c1cnc2ccn(CC3CCC(F)(F)CC3)c2c1` [P-0292, l-[(4,4-difluorocyclohexyl)methyl]-6-(3-methyl-1H-pyrazol-4-yl)pyrrolo[3,2-b]pyridine] as the compound, how does the IC50 [1] read?
**A.** 10 to 200 µM

**Q.** And the IC50 [2]?
**A.** < 10000 nM

**Q.** What about the IC50 [3, 5] of the same compound?
**A.** 1 to 10 µM

**Q.** How did the IC50 [1] turn out when `Cc1noc(C)c1-c1cnc2c(-c3cnn(C)c3)cn(C(C)c3ccccn3)c2c1` (stereo not shown) [P-0217, 3,5-dimethyl-4-[3-(1-methylpyrazol-4-yl)-1-[1-(2-pyridyl)ethyl]pyrrolo[3,2-b]pyridin-6-yl]isoxazole] was run?
**A.** < 1 µM

**Q.** What about the IC50 [2] of the same compound?
**A.** < 10000 nM

**Q.** And the IC50 [3, 5]?
**A.** < 1 µM

**Q.** `Cc1noc(C)c1-c1cnc2c(c1)c(C(O)C1CCC(F)(F)CC1)cn2C` (stereo not shown) [P-0101, (4,4-difluorocyclohexyl)-[5-(3,5-dimethylisoxazol-4-yl)-1-methyl-pyrrolo[2,3-b]pyridin-3-yl]methanol] was tested. Which IC50 [1] did it give?
**A.** < 1 µM

**Q.** What about the IC50 ([3]; Homo sapiens, MV4-11, 72 h, read-out: Cell activity (IC50 μM) MV-4-11 3d-Growth) of the same compound?
**A.** < 1 µM

**Q.** For `Cc1noc(C)c1-c1cnc2c(-c3cnn(CC(F)(F)F)c3)cn(C(C)c3ccccc3)c2c1` (stereo not shown) [P-0202, 3,5-dimethyl-4-[1-(1-phenyl-ethyl)-3-[1-(2,2,2-trifluoro-ethyl)pyrazol-4-yl]pyrrolo[3,2-b]pyridin-6-yl]isoxazole], which IC50 [1] is on record?
**A.** < 1 µM

**Q.** What about the IC50 [2] of the same compound?
**A.** < 10000 nM

**Q.** And the IC50 [3, 5]?
**A.** < 1 µM

**Q.** How did the IC50 [1] turn out when `CCS(=O)(=O)N1CCC(Cc2cn(C)c3ncc(-c4c(C)noc4C)cc23)CC1` [P-0116, 4-[3-[(1-ethylsulfonyl-4-piperidyl)methyl]-1-methyl-pyrrolo[2,3-b]pyridin-5-yl]-3,5-dimethyl-isoxazole] was run?
**A.** < 1 µM

**Q.** What about the IC50 [2] of the same compound?
**A.** < 10000 nM

**Q.** And the IC50 [3, 5]?
**A.** 1 to 10 µM

**Q.** `Cc1noc(C)c1-c1cnc2c(c1)c(CC1CCN(S(=O)(=O)C3CCCC3)CC1)cn2C` [P-0119, 4-[3-[(1-cyclopentylsulfonyl-4-piperidyl)methyl]-1-methyl-pyrrolo[2,3-b]pyridin-5-yl]-3,5-dimethyl-isoxazole] was tested. Which IC50 [1] did it give?
**A.** 1 to 10 µM

**Q.** What about the IC50 [2] of the same compound?
**A.** < 10000 nM

**Q.** And the IC50 [3, 5]?
**A.** 1 to 10 µM

**Q.** Which IC50 [1] does the source give for `Cc1noc(C)c1-c1cnc2c(c1)c(CC1CCN(C(=O)Nc3ccccc3)CC1)cn2C` [P-0114, 4-[[5-(3,5-dimethylisoxazol-4-yl)-1-methyl-pyrrolo[2,3-b]pyridin-3-yl]methyl]-N-phenyl-piperidine-1-carboxamide] here?
**A.** < 1 µM

**Q.** What about the IC50 [2] of the same compound?
**A.** < 10000 nM

**Q.** And the IC50 [3, 5]?
**A.** < 1 µM

**Q.** With “1-(benzenesulfonyl)-5-(3,5-dimethylisoxazol-4-yl)pyrrolo[2,3-b]pyridine-3-carboxylic acid [P-0169]” as the compound, how does the IC50 [1] read?
**A.** < 1 µM

**Q.** And the IC50 [2]?
**A.** < 10000 nM

**Q.** For `Cc1noc(C)c1-c1cnc2c(-c3cnn(C(F)F)c3)cn(C(C)c3ccccc3)c2c1` (stereo not shown) [P-0177, 4-[3-[1-(difluoromethyl)pyrazol-4-yl]-1-(1-phenylethyl)pyrrolo[3,2-b]pyridin-6-yl]-3,5-dimethyl-isoxazole], which IC50 [1] is on record?
**A.** < 1 µM

**Q.** How did the IC50 [1] turn out when `Cc1noc(C)c1-c1cnc2c(-c3cnn(C(F)F)c3)cn(Cc3ccccc3F)c2c1` [P-0176, 4-[3-[1-(difluoromethyl)pyrazol-4-yl]-1-[(2-fluorophenyl)methyl]pyrrolo[3,2-b]pyridin-6-yl]-3,5-dimethyl-isoxazole] was run?
**A.** < 1 µM

**Q.** `Cc1noc(C)c1-c1cnc2[nH]cc([S+]([O-])c3cccc(F)c3)c2c1` (stereo not shown) [P-0142, 4-[3-(3-fluorophenyl)sulfinyl-1H-pyrrolo[2,3-b]pyridin-5-yl]-3,5-dimethyl-isoxazole] was tested. Which IC50 [1] did it give?
**A.** < 1 µM

**Q.** `Cc1noc(C)c1-c1cnc2[nH]cc(Cc3c(F)cccc3Cl)c2c1` [P-0027, 4-[3-[(2-chloro-6-fluoro-phenyl)methyl]-1H-pyrrolo[2,3-b]pyridin-5-yl]-3,5-dimethyl-isoxazole] was tested. Which IC50 [1] did it give?
**A.** < 1 µM

**Q.** For `Cc1noc(C)c1-c1cnc2c(-c3cnn(C)c3)cn(Cc3ccccc3C(F)(F)F)c2c1` [P-0188, 3,5-dimethyl-4-[3-(1-methylpyrazol-4-yl)-1-[[2-(trifluoromethyl)phenyl]methyl]pyrrolo[3,2-b]pyridin-6-yl]isoxazole], which IC50 [1] is on record?
**A.** < 1 µM

**Q.** How did the IC50 [1] turn out when `Cc1noc(C)c1-c1cnc2[nH]cc(P(C)(=O)c3ccccc3)c2c1` (stereo not shown) [P-0165, 3,5-dimethyl-4-[3-[methyl(phenyl)phosphoryl]-1H-pyrrolo[2,3-b]pyridin-5-yl]isoxazole] was run?
**A.** < 1 µM

**Q.** `Cc1noc(C)c1-c1cnc2c(CC3CC3)cn(S(=O)(=O)C3CCCCC3)c2c1` [P-0075, 4-[1-cyclohexylsulfonyl-3-(cyclopropylmethyl)pyrrolo[3,2-b]pyridin-6-yl]-3,5-dimethyl-isoxazole] was tested. Which IC50 [1] did it give?
**A.** < 1 µM

**Q.** How did the IC50 [1] turn out when `Cc1noc(C)c1-c1cnc2[nH]cc(C(c3ccc(F)cc3)(C3CC3)C3CC3)c2c1` [P-0085, 4-[3-[dicyclopropyl-(4-fluorophenyl)methyl]-1H-pyrrolo[2,3-b]pyridin-5-yl]-3,5-dimethyl-isoxazole] was run?
**A.** < 1 µM

**Q.** With `Cc1noc(C)c1-c1cnc2c(-c3cnn(C(F)F)c3)cn(S(=O)(=O)C3CCC3)c2c1` [P-0134, 4-[1-cyclobutyl-sulfonyl-3-[1-(difluoro-methyl)pyrazol-4-yl]pyrrolo[3,2-b]pyridin-6-yl]-3,5-dimethyl-isoxazole] as the compound, how does the IC50 [1] read?
**A.** < 1 µM

**Q.** `COc1ncc(F)cc1C(OC)c1c[nH]c2ncc(-c3c(C)noc3C)cc12` (stereo not shown) [P-0011, 4-[3-[(5-fluoro-2-methoxy-3-pyridyl)-methoxy-methyl]-1H-pyrrolo[2,3-b]pyridin-5-yl]-3,5-dimethyl-isoxazole] was tested. Which IC50 [1] did it give?
**A.** < 1 µM

**Q.** For `COC(c1ccccc1Cl)c1c[nH]c2ncc(-c3c(C)noc3C)cc12` (stereo not shown) [P-0020, 4-[3-[(2-chlorophenyl)-methoxy-methyl]-1H-pyrrolo[2,3-b]pyridin-5-yl]-3,5-dimethyl-isoxazole], which IC50 [1] is on record?
**A.** < 1 µM
